From ChEMBL document CHEMBL5291721, “A preclinical secondary pharmacology resource illuminates target-adverse drug reaction associations of marketed drugs” (Nat Commun, 2023) come the findings set out here.

Where only a bound is given, the exact number is not on record here.

One test has as its target Histamine H3 receptor (Homo sapiens, UniProt Q9Y5N1).
The target in the next test is Acetylcholinesterase (Homo sapiens, UniProt P22303). It is filed as functional.
Another test deals with Prothrombin (Homo sapiens, UniProt P00734). Format: functional.
Test [1] addresses Voltage-gated inwardly rectifying potassium channel KCNH2 (Homo sapiens, UniProt Q12809). Format: functional.
For the next test, the target named is T1, Thromboxane A2 receptor (Homo sapiens, UniProt P21731).
T1 sequence (P21731 whole entry): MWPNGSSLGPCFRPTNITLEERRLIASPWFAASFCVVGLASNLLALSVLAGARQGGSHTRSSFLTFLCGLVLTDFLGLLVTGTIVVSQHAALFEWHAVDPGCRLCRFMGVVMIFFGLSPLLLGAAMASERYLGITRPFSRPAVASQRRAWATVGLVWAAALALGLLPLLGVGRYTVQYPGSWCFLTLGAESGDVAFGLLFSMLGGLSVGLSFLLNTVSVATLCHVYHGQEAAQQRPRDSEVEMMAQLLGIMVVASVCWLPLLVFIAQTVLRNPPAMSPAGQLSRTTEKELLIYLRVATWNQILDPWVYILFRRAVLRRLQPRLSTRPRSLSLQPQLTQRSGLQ
It is filed as functional, cell-based.

The next test concerns the target D(3) dopamine receptor (Homo sapiens, UniProt P35462).
Test [2] addresses cGMP-inhibited 3',5'-cyclic phosphodiesterase 3A (Homo sapiens, UniProt Q14432). Format: functional.
A further test addresses T2, Progesterone receptor (Homo sapiens, UniProt P06401).
T2 sequence (P06401 whole entry): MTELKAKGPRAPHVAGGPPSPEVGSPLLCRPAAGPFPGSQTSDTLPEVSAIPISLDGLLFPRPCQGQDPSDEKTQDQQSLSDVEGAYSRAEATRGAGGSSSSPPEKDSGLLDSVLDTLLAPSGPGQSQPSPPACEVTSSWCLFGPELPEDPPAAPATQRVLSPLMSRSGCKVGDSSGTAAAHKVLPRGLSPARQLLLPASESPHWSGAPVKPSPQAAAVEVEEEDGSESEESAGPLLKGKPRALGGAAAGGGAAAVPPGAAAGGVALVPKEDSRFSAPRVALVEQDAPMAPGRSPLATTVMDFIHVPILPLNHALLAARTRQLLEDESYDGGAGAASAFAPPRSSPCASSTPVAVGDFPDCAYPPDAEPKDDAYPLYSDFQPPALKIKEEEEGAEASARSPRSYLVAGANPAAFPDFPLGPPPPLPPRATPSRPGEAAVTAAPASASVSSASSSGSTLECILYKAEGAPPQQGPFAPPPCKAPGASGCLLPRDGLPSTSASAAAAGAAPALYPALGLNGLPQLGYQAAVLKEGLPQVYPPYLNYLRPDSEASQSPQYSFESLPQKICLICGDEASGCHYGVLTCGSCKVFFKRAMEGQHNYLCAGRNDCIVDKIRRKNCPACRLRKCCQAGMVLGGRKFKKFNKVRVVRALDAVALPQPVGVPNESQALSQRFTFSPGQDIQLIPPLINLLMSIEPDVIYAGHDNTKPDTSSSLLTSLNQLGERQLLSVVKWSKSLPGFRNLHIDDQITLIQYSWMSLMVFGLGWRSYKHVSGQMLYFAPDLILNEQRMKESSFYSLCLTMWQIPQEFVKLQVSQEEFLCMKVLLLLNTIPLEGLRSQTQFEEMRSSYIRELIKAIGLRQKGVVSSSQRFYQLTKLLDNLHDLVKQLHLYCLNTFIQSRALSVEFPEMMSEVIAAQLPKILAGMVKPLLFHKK

Test [3] concerns the target T3, Gamma-aminobutyric acid receptor subunit alpha-1 (Rattus norvegicus, UniProt P62813).
For test [4], the target named is Prostaglandin G/H synthase 1 (Homo sapiens, UniProt P23219). It is filed as functional.
Sequence of Prostaglandin G/H synthase 1 (P23219 whole entry): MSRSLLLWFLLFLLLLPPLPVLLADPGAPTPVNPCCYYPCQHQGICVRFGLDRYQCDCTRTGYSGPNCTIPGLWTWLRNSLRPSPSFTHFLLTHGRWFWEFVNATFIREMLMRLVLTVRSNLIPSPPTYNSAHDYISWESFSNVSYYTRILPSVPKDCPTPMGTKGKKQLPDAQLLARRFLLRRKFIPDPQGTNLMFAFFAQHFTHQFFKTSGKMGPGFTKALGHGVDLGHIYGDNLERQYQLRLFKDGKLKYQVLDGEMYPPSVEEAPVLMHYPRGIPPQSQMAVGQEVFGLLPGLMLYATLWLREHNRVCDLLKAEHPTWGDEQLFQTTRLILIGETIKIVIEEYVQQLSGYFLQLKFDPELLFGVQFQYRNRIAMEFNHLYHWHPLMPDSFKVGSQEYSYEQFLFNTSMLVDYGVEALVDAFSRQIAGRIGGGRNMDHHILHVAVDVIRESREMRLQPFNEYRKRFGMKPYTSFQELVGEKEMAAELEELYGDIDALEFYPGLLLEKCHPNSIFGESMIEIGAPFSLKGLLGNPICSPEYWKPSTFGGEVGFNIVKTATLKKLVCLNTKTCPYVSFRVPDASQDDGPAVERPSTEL
For test [5], the target named is Sodium-dependent dopamine transporter (Homo sapiens, UniProt Q01959).
Sequence of Sodium-dependent dopamine transporter (Q01959 whole entry): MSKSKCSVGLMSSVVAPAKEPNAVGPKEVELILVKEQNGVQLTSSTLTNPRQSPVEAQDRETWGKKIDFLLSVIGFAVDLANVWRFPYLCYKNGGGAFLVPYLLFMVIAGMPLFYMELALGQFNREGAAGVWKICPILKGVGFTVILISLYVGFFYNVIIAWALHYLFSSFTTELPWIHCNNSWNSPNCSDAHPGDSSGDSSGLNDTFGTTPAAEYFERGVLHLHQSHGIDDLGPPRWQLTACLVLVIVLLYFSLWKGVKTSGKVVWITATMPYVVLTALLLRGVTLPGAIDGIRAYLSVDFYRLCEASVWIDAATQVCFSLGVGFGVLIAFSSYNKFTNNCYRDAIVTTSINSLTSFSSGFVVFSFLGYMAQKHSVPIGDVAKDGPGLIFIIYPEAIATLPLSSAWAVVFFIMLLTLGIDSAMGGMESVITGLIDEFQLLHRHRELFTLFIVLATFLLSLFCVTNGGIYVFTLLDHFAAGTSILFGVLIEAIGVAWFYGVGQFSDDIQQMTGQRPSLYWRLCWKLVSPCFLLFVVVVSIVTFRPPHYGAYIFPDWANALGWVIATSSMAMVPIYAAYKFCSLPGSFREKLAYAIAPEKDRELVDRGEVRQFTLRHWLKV
The target in test [6] is T4, Muscarinic acetylcholine receptor M1 (Homo sapiens, UniProt P11229).
T4 sequence (P11229 whole entry): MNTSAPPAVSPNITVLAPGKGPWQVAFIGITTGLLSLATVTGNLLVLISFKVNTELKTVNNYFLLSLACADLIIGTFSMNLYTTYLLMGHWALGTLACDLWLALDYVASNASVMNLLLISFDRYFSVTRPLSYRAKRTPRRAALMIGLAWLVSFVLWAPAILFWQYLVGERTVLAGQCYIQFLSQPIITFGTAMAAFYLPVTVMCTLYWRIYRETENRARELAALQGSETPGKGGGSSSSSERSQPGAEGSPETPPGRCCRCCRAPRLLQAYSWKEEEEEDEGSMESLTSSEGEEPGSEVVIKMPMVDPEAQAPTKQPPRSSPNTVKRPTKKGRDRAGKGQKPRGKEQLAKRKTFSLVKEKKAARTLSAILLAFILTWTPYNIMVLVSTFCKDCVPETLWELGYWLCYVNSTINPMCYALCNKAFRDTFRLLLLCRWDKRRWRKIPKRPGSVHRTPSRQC
Format: functional, cell-based.

Test [7] has as its target T3, Gamma-aminobutyric acid receptor subunit alpha-1. Format: functional.
Test [8] deals with T5, 5-hydroxytryptamine receptor 1A (Homo sapiens, UniProt P08908).
T5 sequence (P08908 whole entry): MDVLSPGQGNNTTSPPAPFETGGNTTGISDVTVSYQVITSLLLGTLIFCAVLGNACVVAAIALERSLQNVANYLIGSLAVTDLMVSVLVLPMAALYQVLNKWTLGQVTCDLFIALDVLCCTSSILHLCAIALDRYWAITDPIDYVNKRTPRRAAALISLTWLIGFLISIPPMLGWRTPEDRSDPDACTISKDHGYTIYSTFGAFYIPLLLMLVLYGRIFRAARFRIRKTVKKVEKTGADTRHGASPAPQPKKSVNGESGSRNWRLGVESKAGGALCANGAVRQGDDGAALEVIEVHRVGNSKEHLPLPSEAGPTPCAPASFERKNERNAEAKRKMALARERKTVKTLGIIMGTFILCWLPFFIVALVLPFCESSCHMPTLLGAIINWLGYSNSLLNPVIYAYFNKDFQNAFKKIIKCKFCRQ
Note: assay procedure not described here.

T3 sequence (P62813 whole entry): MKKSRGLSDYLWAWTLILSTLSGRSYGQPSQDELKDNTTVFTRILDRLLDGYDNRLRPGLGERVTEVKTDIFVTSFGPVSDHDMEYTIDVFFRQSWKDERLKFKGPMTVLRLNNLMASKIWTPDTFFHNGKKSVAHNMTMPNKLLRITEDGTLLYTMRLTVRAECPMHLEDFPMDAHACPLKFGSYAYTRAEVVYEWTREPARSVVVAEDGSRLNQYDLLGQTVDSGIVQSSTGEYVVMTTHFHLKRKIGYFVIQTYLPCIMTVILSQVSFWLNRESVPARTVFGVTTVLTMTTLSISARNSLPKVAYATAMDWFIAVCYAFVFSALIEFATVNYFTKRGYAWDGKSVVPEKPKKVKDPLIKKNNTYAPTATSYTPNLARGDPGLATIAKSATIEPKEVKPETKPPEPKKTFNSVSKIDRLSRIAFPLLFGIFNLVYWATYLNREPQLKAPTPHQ
Sequence of Acetylcholinesterase (P22303 whole entry): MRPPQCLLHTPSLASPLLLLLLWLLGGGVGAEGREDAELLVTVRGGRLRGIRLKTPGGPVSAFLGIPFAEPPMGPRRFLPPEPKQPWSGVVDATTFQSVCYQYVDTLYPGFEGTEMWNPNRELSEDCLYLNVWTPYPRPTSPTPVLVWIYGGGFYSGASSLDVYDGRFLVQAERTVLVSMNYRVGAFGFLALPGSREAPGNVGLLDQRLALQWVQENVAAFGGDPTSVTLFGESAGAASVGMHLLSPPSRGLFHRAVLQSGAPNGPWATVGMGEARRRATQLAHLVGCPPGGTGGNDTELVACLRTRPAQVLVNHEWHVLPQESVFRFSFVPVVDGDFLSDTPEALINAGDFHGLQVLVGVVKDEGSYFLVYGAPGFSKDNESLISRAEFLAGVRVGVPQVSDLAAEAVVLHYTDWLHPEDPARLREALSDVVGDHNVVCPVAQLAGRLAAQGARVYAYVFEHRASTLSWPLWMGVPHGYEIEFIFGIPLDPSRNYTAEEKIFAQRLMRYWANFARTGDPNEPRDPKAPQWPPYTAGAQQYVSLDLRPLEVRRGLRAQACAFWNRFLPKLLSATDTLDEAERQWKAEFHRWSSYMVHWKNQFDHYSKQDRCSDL
Sequence of D(3) dopamine receptor (P35462 whole entry): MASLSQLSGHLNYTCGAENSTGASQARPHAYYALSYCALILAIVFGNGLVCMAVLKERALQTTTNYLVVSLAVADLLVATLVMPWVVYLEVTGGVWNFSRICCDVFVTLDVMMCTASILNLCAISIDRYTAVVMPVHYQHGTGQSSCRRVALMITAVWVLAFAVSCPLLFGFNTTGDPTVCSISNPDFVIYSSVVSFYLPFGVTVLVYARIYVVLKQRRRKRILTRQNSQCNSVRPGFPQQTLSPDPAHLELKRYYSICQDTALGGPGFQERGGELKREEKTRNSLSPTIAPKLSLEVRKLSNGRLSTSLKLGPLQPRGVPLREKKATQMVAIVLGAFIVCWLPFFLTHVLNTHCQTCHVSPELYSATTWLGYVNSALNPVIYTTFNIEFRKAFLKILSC
Sequence of Histamine H3 receptor (Q9Y5N1 whole entry): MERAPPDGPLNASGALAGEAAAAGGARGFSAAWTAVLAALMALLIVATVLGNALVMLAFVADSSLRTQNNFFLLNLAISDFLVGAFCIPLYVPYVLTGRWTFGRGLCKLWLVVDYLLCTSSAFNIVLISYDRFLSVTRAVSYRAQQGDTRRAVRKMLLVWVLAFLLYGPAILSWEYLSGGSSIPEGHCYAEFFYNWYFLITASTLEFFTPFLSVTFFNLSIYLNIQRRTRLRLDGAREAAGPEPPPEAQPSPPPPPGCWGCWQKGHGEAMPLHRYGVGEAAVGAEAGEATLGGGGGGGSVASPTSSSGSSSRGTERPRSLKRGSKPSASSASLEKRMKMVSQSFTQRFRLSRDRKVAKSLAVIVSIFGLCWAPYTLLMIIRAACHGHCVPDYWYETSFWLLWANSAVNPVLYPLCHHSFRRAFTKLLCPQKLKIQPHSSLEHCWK
Sequence of Voltage-gated inwardly rectifying potassium channel KCNH2 (Q12809 whole entry): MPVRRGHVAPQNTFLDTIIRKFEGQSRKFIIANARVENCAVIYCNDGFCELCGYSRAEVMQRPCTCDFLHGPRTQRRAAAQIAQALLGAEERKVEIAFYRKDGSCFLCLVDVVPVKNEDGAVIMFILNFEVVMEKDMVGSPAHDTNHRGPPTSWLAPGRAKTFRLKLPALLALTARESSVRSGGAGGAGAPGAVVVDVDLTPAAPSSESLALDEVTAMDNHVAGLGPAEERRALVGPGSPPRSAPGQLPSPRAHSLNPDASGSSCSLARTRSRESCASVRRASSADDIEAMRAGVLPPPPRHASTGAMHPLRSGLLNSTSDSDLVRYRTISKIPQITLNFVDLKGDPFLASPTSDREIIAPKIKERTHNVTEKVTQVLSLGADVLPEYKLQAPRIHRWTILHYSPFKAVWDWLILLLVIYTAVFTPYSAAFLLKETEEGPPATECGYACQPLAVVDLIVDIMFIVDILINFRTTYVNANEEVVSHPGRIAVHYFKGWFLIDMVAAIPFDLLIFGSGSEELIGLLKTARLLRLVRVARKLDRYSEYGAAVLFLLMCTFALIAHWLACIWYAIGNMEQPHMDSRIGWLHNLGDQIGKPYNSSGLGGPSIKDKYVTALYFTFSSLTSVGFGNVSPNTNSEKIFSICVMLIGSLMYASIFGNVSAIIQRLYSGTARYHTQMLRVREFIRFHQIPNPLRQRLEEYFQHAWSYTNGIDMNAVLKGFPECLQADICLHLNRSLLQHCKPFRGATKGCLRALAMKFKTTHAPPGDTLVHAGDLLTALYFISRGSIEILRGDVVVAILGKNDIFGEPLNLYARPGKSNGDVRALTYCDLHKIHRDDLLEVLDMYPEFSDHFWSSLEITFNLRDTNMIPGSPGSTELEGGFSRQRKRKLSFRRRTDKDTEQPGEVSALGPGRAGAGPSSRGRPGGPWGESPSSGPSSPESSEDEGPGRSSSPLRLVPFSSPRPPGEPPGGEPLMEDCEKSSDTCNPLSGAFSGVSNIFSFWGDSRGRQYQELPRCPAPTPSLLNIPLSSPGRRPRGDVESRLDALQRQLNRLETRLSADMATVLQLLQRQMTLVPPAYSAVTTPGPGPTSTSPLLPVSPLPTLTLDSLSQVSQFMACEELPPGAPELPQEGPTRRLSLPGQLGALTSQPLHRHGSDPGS

Broadly, the AC50 is the concentration giving half of the maximal activity seen. Low values mean activity at low concentration, high ones activity only at high concentration. Consider `CC(=O)O[C@]1(C(C)=O)CC[C@H]2[C@@H]3C=C(C)C4=CC(=O)CC[C@@H]4[C@H]3CC[C@@]21C` [NOMEGESTROL ACETATE], for which the AC50 (on Histamine H3 receptor; on Acetylcholinesterase; on Prothrombin; in test [1]; on Thromboxane A2 receptor; on D(3) dopamine receptor) was over 30 µM in each case. The concentration at half-maximal activity (AC50) in test [2] was over 30 µM; at Progesterone receptor, 0.003 µM; in test [3], 4.4 µM; in [4], over 30 µM; in [5], over 30 µM; in test [6] it was over 10 µM. Also, the AC50 in test [7] was 2.5 µM; in [8], over 30 µM.
As to `C/C=C/C/C=C/CCC(=O)[C@H]1O[C@H]1C(N)=O` [CERULENIN], the AC50 (at Histamine H3 receptor; on Acetylcholinesterase; on Prothrombin; in test [1]; at Thromboxane A2 receptor; on D(3) dopamine receptor) was over 30 µM in each case. Further, the half-maximal activity concentration (AC50) (in test [2]; at Progesterone receptor; in test [3]; in test [4]; in [5]; in test [6]) was over 30 µM in each case. Further, the half-maximal activity concentration (AC50) in [8] was over 30 µM.
In the case of `CCCN(CCC)C(=O)Cc1c(-c2ccc(Cl)cc2)nc2ccc(Cl)cn12` [ALPIDEM], the concentration at half-maximal activity (AC50) on Histamine H3 receptor was over 30 µM; at Acetylcholinesterase it was over 30 µM; on Prothrombin it was over 30 µM; in test [1] it was 14.8 µM; on Thromboxane A2 receptor it was over 30 µM; at D(3) dopamine receptor it was 27.8 µM. For the same molecule, the AC50 in [2] was over 30 µM; on Progesterone receptor, over 30 µM; in test [3] it was 0.02 µM; in [4], over 30 µM; in [5] it was over 30 µM; in test [6], over 10 µM. Moreover, the results for the AC50 in test [7] and in [8] were 0.0431 µM and over 30 µM, respectively.
As to `CC(C)(O)CNc1nc(Nc2ccnc(C(F)(F)F)c2)nc(-c2cccc(C(F)(F)F)n2)n1` [ENASIDENIB], the half-maximal activity concentration (AC50) (at Histamine H3 receptor; at Acetylcholinesterase; at Prothrombin; in test [1]; at Thromboxane A2 receptor; on D(3) dopamine receptor) was over 30 µM each time. Also, the AC50 was over 30 µM in test [2]; over 30 µM on Progesterone receptor; over 30 µM in test [3]; 14.1 µM in test [4]; over 30 µM in test [5]; 23.9 µM in test [6]. Moreover, the half-maximal activity concentration (AC50) in test [8] was over 30 µM.
With `CC[C@H](c1ccc(O)cc1)[C@@H](CC)c1ccc(O)cc1` [HEXESTROL], the half-maximal activity concentration (AC50) on Histamine H3 receptor was over 30 µM; at Acetylcholinesterase it was over 30 µM; at Prothrombin, over 30 µM; in test [1], over 30 µM; on Thromboxane A2 receptor, 21 µM; at D(3) dopamine receptor, 17.5 µM. The AC50 is over 30 µM in [2]; 1.85 µM at Progesterone receptor; over 30 µM in test [3]; over 30 µM in test [4]; 3.31 µM in [5]; over 3 µM in [6]. For the same molecule, the AC50 in [8] was over 30 µM.
Take `CC[C@H]1OC(=O)[C@H](C)C(=O)[C@H](C)[C@@H](O[C@@H]2O[C@H](C)C[C@H](N(C)C)[C@H]2O)[C@](C)(OC)C[C@@H](C)C(=O)[C@H](C)[C@H]2N(CCCCn3cnc(-c4cccnc4)c3)C(=O)O[C@]12C` [TELITHROMYCIN]: the AC50 (at Histamine H3 receptor; on Acetylcholinesterase; at Prothrombin; in test [1]; at Thromboxane A2 receptor; at D(3) dopamine receptor) was over 30 µM in each case. Further, the AC50 (in test [2]; at Progesterone receptor; in test [3]; in [4]; in test [5]; in test [6]) was over 30 µM throughout. For the same molecule, the AC50 in [8] was over 30 µM.
